Key:
bacteria = assay: Bactericidal efficacy, summary over all bacteria and conditions; format: cell-based, Staphylococcus aureus and Pseudomonas aeruginosa; conditions: for bactericidal efficiency (in words): Table V conditions
Procedure: (§1) The halogenated imidazolidin-4-one derivatives prepared as in examples 3, 5, and 6 (Compounds 1, 5, and 3, respectively) were tested as bactericides against the microorganisms Staphylococcus aureus (ATCC25923) and Pseudomonas aeruginosa (ATCC 27853) in demand-free water (DFW) as a function of pH and temperature and in a synthetic-demand water (SDW) at pH 9.5 and 4° C. The demand-free and synthetic-demand waters were prepared as described in examples 7 and 12, respectively.
(§2) For the bactericidal efficacy tests 50 milliliters of buffered DFW or SDW were placed in a 125 milliliter flask which was then inoculated with the organism to be tested such that the final density of the organism was about 1×10^6 cfu/ml (colony forming units per milliliter). The inoculated solution was allowed to equilibrate at the test temperature by immersion in a thermostated water bath for 15 minutes with constant stirring. Then an appropriate amount of an aqueous solution containing the test halogenated imidazolidin-4-one compound maintained at the same test temperature was added to the inoculated solution to bring the total concentration of potential positive halogen (Cl^+ or Cl^+ /Br^+) in the mixture to a predetermined level (10 parts per million and 5 parts per million Cl^+ from compounds 1 and 3; the molar equivalent in Cl^+ /Br^+ from Compound 5). 1 milliliter aliquots were removed from the test mixture at various predetermined times, and the active halogen was quenched by 1 milliliter portions of sterile 0.02 Normal sodium thiosulfate. Serial dilutions were made into sterile saline, and three 25 microliter aliquots of each of the resulting dilutions were applied to the dried surface of a Petri dish containing tryptic soy and nutrient agars for plating S. aureus and P. aeruginosa, respectively. After 48 hours at 37° C. the three replicates for each dilution were counted and averaged. This average was used to compute the cfu/ml for that particular aliquot. Inactivation of the organism was considered to be at least 99.9999 percent when no colonies were detected in the thiosulfate quenched aliquots.

[1] = Stability in synthetic halogen demand water (SDW); format: physicochemical; conditions: 4° C.; for stability (in words): heavy halogen demand (SDW), pH 9.5; for remaining at 0.083 h: pH 9.5, 0.083 hrs; for remaining at 0.5 h: pH 9.5, 0.5 hrs; for remaining at 2 h: pH 9.5, 2.0 hrs
Procedure: A synthetic halogen demand water (SDW) was prepared by mixing the following substances with demand-free water (DFW): 375 milligrams per liter of each of the inorganic salts sodium chloride, potassium chloride, calcium chloride, and magnesium chloride; 50 milligrams per liter of Bentonite clay; 30 milligrams per liter of humic acid; 0.01 percent final concentration of heat-treated horse serum; and 5×10^5 cells per milliliter of heat-killed Saccharomyces cerevisiae yeast cells. The SDW solution was buffered with 0.01 Molar borate/sodium hydroxide to a pH of 9.5 and held at 4° C. during the experiments. The conditions of high ionic strength, turbidity, and organic material, and alkaline pH at low temperature, are viewed as a worst-case scenario for disinfection applications and thus should provide the optimum test of stability for the new compounds.
In separate flasks were dissolved compounds 1, 2, 3, and 5 to a starting concentration of 10 milligrams per liter total potential positive chlorine or its molar equivalent (16.25 milligrams per liter) in total potential positive halogen for Compound 5. Aliquots were withdrawn frequently over a period of more than 90 hours, and the percent positive halogen remaining was determined by standard iodometric titration.

[2] = system: Staphylococcus aureus (ATCC25923); assay: Bactericidal efficacy, percent inactivation of S. aureus; format: cell-based; conditions: for killing at 5 ppm: DFW; for killing at 10 ppm: SDW
Procedure: as §1, §2

[3] = Laboratory stability in halogen demand-free water (DFW), iodometric titration; format: physicochemical; conditions: for remaining at 23.52 h / remaining at 95.76 h / remaining at 168 h / remaining at 336 h / remaining at 504 h / remaining at 672 h / remaining at 840 h / remaining at 1008 h: demand-free water
Procedure: The stability of 1,3-dichloro-2,2,5,5-tetramethylimidazolidin-4-one (Compound 1) in halogen demand-free water was determined at 22° C. and pH values of 4.5, 7.0, and 9.5, and the results were compared to those for free chlorine as supplied by calcium hypochlorite. The demand-free water (DFW) was prepared by chlorination of distilled, deionized water buffered to the appropriate pH followed by dechlorination (of the excess free chlorine) by exposure to direct sunlight until no free chlorine remained. This treatment insured that all halogen demand in the water was neutralized. Then Compound 1 and calcium hypochlorite were separately dissolved in identical DFW (buffered to an appropriate pH) solutions to the same final total chlorine concentrations (10 milligrams per liter potential positive chlorine). The solutions in separate flasks, which were stoppered with porous, sterile cotton plugs to allow free exchange with laboratory air, were then held at a constant temperature of 22° C. by means of a controlled water bath for a period of several weeks. Aliquots were withdrawn periodically (at least weekly), and the total positive chlorine remaining was determined in triplicate by standard iodometric titration. […]
The stabilities of 1,3-dibromo-2,2,5,5-tetramethylimidazolidin-4-one (Compound 4) and 1-bromo-3-chloro-2,2,5,5-tetramethylimidazolidin-4-one (Compound 5) in halogen demand-free water (DFW) were determined at 22° C. and pH values of 7.0 and 9.5 using the same procedures as discussed under example 9. Given the instability of Compound 1 at pH 4.5 (example 9), it was deemed unnecessary to test compounds 4 and 5 at that pH. The two compounds were dissolved in DFW buffered to the appropriate pH in separate flasks and held at a temperature of 22° C. by means of a constant temperature bath. The starting concentrations of total potential positive halogen in the two solutions were 22.6 milligrams per liter for Compound 4 and 16.25 milligrams per liter for Compound 5; these concentrations represent the molar equivalents in total potential positive halogen to that used for Compound 1 in example 9. The solutions were analyzed in the manner described in example 9.

[4] = synthetic halogen demand water, SDW, read-out: Percent Halogen Remaining
[5] = ATCC25923, 5 min, pH 4.5, pH 4.5, 22° C., 5 minutes
[6] = ATCC25923, 5 min, pH 7, pH 7.0, 22° C., 5 minutes
[7] = ATCC25923, 5 min, pH 9.5, pH 9.5, 4° C., 5 minutes
[8] = ATCC25923, 5 min, pH 9.5, pH 9.5, 22° C., 5 minutes
[9] = ATCC25923, 10 min, pH 4.5, pH 4.5, 22° C., 10 minutes
[10] = ATCC25923, 10 min, pH 7, pH 7.0, 22° C., 10 minutes
[11] = ATCC25923, 10 min, pH 9.5, pH 9.5, 4° C., 10 minutes
[12] = ATCC25923, 10 min, pH 9.5, pH 9.5, 22° C., 10 minutes

SMILES: CC1(C)C(=O)N(Cl)C(C)(C)N1Cl [Compound 1, 1,3-dichloro-2,2,5,5-tetramethylimidazolidin-4-one]
- bactericidal efficiency (in words) (bacteria): reasonably efficient as a bactericide
- stability (in words) [1]: much more stable under these conditions than is free chlorine
- remaining at 0.083 h [1, 4]: 98.8%
- remaining at 0.25 h ([1]; synthetic halogen demand water, SDW, pH 9.5, 0.25 hrs, read-out: Percent Halogen Remaining): 98.8%
- remaining at 0.5 h [1, 4]: 93.1%
- remaining at 1 h ([1]; synthetic halogen demand water, SDW, pH 9.5, 1.0 hrs, read-out: Percent Halogen Remaining): 92.4%
- remaining at 2 h [1, 4]: 92.4%
- remaining at 4 h ([1]; synthetic halogen demand water, SDW, pH 9.5, 4.0 hrs, read-out: Percent Halogen Remaining): 88.8%
- remaining at 25 h ([1]; synthetic halogen demand water, SDW, pH 9.5, 25.0 hrs, read-out: Percent Halogen Remaining): 71.4%
- remaining at 93 h ([1]; synthetic halogen demand water, SDW, pH 9.5, 93.0 hrs, read-out: Percent Halogen Remaining): 60.2%
- killing at 5 ppm [2, 5]: 100%
- killing at 5 ppm [2, 6]: 89.1%
- killing at 5 ppm [2, 7]: 71.3%
- killing at 10 ppm [2, 7]: 43.8%
- killing at 5 ppm [2, 8]: > 100%
- killing at 5 ppm [2, 9]: > 100%
- killing at 5 ppm [2, 10]: 99.1%
- killing at 5 ppm [2, 11]: 80.9%
- killing at 10 ppm [2, 11]: 68.1%
- killing at 5 ppm [2, 12]: > 100%
- stability (in words), against Compounds 4 and 5 [3]: considerably more stable in DFW at pH values of 7.0 and 9.5 and 22 °C than are Compounds 4 and 5
- remaining at 23.52 h ([3]; pH 4.5): 100%
- remaining at 95.76 h ([3]; pH 4.5): 88.9%
- remaining at 168 h ([3]; pH 4.5): 77.6%
- remaining at 336 h ([3]; pH 4.5): 55.5%
- remaining at 504 h ([3]; pH 4.5): 40.4%
- remaining at 672 h ([3]; pH 4.5): 30.7%
- remaining at 840 h ([3]; pH 4.5): 26%
- remaining at 1008 h ([3]; pH 4.5): 23.5%
- remaining at 168 h ([3]; pH 7): 97.1%
- remaining at 336 h ([3]; pH 7): 95%
- remaining at 504 h ([3]; pH 7): 93.5%
- remaining at 672 h ([3]; pH 7): 90.6%
- remaining at 840 h ([3]; pH 7): 86%
- remaining at 1008 h ([3]; pH 7): 83.4%
- remaining at 23.52 h ([3]; pH 9.5): 96.5%
- remaining at 95.76 h ([3]; pH 9.5): 98.9%
- remaining at 168 h ([3]; pH 9.5): 95.1%
- remaining at 336 h ([3]; pH 9.5): 89.4%
- remaining at 504 h ([3]; pH 9.5): 82.6%
- remaining at 672 h ([3]; pH 9.5): 72.3%
- remaining at 840 h ([3]; pH 9.5): 63.7%
- remaining at 1008 h ([3]; pH 9.5): 55.1%
- stability (in words) ([3]; pH 4.5): rather unstable in acidic DFW (pH 4.5)
- stability (in words) ([3]; pH 7): considerably more stable in DFW at pH 7.0 at 22 °C than is free chlorine
- stability (in words), against free chlorine ([3]; pH 9.5): more stable than free chlorine in alkaline DFW (pH 9.5)

SMILES: CC1(C)NC(=O)C(C)(C)N1Cl [Compound 3, 1-chloro-2,2,5,5-tetramethylimidazolidin-4-one]
- bactericidal efficiency (in words) (bacteria): least efficient
- inactivation (bacteria; all conditions tested, given sufficient contact time): greater than 99.9999%
- stability (in words) [1]: extremely stable in the presence of heavy demand
- remaining at 0.083 h [1, 4]: 99.2%
- remaining at 0.5 h [1, 4]: 96.6%
- remaining at 2 h [1, 4]: 95.4%
- remaining at 8 h ([1]; synthetic halogen demand water, SDW, pH 9.5, 8.0 hrs, read-out: Percent Halogen Remaining): 94.1%
- remaining at 24 h ([1]; synthetic halogen demand water, SDW, pH 9.5, 24.0 hrs, read-out: Percent Halogen Remaining): 94.9%
- remaining at 48 h ([1]; synthetic halogen demand water, SDW, pH 9.5, 48.0 hrs, read-out: Percent Halogen Remaining): 94.5%
- remaining at 72 h ([1]; synthetic halogen demand water, SDW, pH 9.5, 72.0 hrs, read-out: Percent Halogen Remaining): 94.1%
- remaining at 122 h ([1]; synthetic halogen demand water, SDW, pH 9.5, 122.0 hrs, read-out: Percent Halogen Remaining): 94.1%
- killing at 5 ppm [2, 5]: 87.4%
- killing at 5 ppm [2, 6]: 0%
- killing at 10 ppm [2, 7]: 2.86%
- killing at 5 ppm [2, 8]: 32.7%
- killing at 5 ppm [2, 9]: 96.3%
- killing at 5 ppm [2, 10]: 4.42%
- killing at 10 ppm [2, 11]: 0%
- killing at 5 ppm [2, 12]: 50.2%
- stability (in words) ([3]; pH 7): more stable than Compound 1 and considerably more stable than free chlorine (Compound 2) in DFW at pH 7.0 and 22 °C

From US5126057A, “Disinfecting with N,N'-dihaloimidazolidin-4-ones” (Auburn Research Foundation, priority 1991, dated 1992)
